Results: patent US12077503B2, “Substituted cyclic amides and their use as herbicides” (FMC CORPORATION, priority 2015, dated 2024)

Tests used:
Type in all cases: in vivo
[1] = tested on: barnyardgrass (Echinochloa crus-galli); assay: Test G Post-Emergence Protocol; details: Echinochloa crus-galli, post-emergence, 312 h; for pest or weed control at 15.625 g/ha: 15.625 g ai/ha, evaluated after 13 days (100=total damage to plant; 0=no damage to plant), read-out: Barnyardgrass damage rating; for pest or weed control at 62.5 g/ha: 62.5 g ai/ha, read-out: Barnyardgrass damage rating (100=total damage to plant; 0=no damage to plant); for pest or weed control at 62.5 g/ha / pest or weed control at 250 g/ha: evaluated after 13 days; for pest or weed control at 250 g/ha: 250 g ai/ha, read-out: damage to plant, Barnyardgrass (100=total damage to plant; 0=no damage to plant)
Description: (§1) Seeds of corn (Zea mays), giant foxtail (Setaria faberi), barnyardgrass (Echinochloa crus-galli), ivy-leaved morning glory (Ipomoea hederacea), redroot pigweed (Amaranthus retroflexus) and velvetleaf (Abutilon theophrasti) were sown in standard soil in pots. After cultivation for 8 days under controlled conditions in a glasshouse (at 24/16° C., day/night; 14 hours light; 65% humidity), the plants were sprayed with an aqueous spray solution derived from the formulation of the technical active ingredient in acetone/water (50:50) solution containing 0.5% Tween 20 (polyoxyethylene sorbitan monolaurate, CAS RN 9005-64-5) to give a final dose of 15.625, 62.5 or 250 g/ha of test compound.
(§2) The test plants were then grown on under controlled conditions in a glasshouse (at 24/16° C., day/night; 14 hours light; 65% humidity) and watered twice daily. After 13 days the test was evaluated (100=total damage to plant; 0=no damage to plant). A dash (-) means no test result.

[2] = tested on: corn (Zea mays); assay: Test G Post-Emergence Protocol; details: Zea mays, post-emergence, 312 h; for plant injury at 15.625 g/ha: 15.625 g ai/ha, evaluated after 13 days (100=total damage to plant; 0=no damage to plant), read-out: Corn damage rating; for plant injury at 62.5 g/ha: 62.5 g ai/ha, read-out: Corn damage rating (100=total damage to plant; 0=no damage to plant); for plant injury at 62.5 g/ha / plant injury at 250 g/ha: evaluated after 13 days; for plant injury at 250 g/ha: 250 g ai/ha, read-out: damage to plant, Corn (100=total damage to plant; 0=no damage to plant)
Description: as §1, §2

[3] = tested on: giant foxtail (Setaria faberi); assay: Test G Post-Emergence Protocol; details: Setaria faberi, post-emergence, 312 h; for pest or weed control at 15.625 g/ha: 15.625 g ai/ha, evaluated after 13 days (100=total damage to plant; 0=no damage to plant), read-out: Foxtail, Giant damage rating; for pest or weed control at 62.5 g/ha: 62.5 g ai/ha, read-out: Foxtail, Giant damage rating (100=total damage to plant; 0=no damage to plant); for pest or weed control at 62.5 g/ha / pest or weed control at 250 g/ha: evaluated after 13 days; for pest or weed control at 250 g/ha: 250 g ai/ha, read-out: damage to plant, Foxtail, Giant (100=total damage to plant; 0=no damage to plant)
Description: as §1, §2

[4] = tested on: ivy-leaved morning glory (Ipomoea hederacea); assay: Test G Post-Emergence Protocol; details: Ipomoea, post-emergence, 312 h; for pest or weed control at 15.625 g/ha: 15.625 g ai/ha, evaluated after 13 days (100=total damage to plant; 0=no damage to plant), read-out: Morningglory, Ivy-leaved damage rating; for pest or weed control at 62.5 g/ha: 62.5 g ai/ha, read-out: Morningglory, Ivy-leaved damage rating (100=total damage to plant; 0=no damage to plant); for pest or weed control at 62.5 g/ha / pest or weed control at 250 g/ha: evaluated after 13 days; for pest or weed control at 250 g/ha: 250 g ai/ha, read-out: damage to plant, Morningglory, Ivy-leaved (100=total damage to plant; 0=no damage to plant)
Description: as §1, §2

[5] = tested on: redroot pigweed (Amaranthus retroflexus); assay: Test G Post-Emergence Protocol; details: Amaranthus retroflexus, post-emergence, 312 h; for pest or weed control at 15.625 g/ha: 15.625 g ai/ha, evaluated after 13 days (100=total damage to plant; 0=no damage to plant), read-out: Pigweed, Redroot damage rating; for pest or weed control at 62.5 g/ha: 62.5 g ai/ha, read-out: Pigweed, Redroot damage rating (100=total damage to plant; 0=no damage to plant); for pest or weed control at 62.5 g/ha / pest or weed control at 250 g/ha: evaluated after 13 days; for pest or weed control at 250 g/ha: 250 g ai/ha, read-out: damage to plant, Pigweed, Redroot (100=total damage to plant; 0=no damage to plant)
Description: as §1, §2

[6] = tested on: velvetleaf (Abutilon theophrasti); assay: Test G Post-Emergence Protocol; details: Abutilon theophrasti, post-emergence, 312 h; for pest or weed control at 15.625 g/ha: 15.625 g ai/ha, evaluated after 13 days (100=total damage to plant; 0=no damage to plant), read-out: Velvetleaf damage rating; for pest or weed control at 62.5 g/ha: 62.5 g ai/ha, read-out: Velvetleaf damage rating (100=total damage to plant; 0=no damage to plant); for pest or weed control at 62.5 g/ha / pest or weed control at 250 g/ha: evaluated after 13 days; for pest or weed control at 250 g/ha: 250 g ai/ha, read-out: damage to plant, Velvetleaf (100=total damage to plant; 0=no damage to plant)
Description: as §1, §2

[7] = tested on: corn (Zea mays); assay: Test A preemergence; details: Zea mays, pre-emergence, 240 h, 0 to 100 scale (0 no effect, 100 complete control)
Outline: (§3)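 Compounds were formulated in a non-phytotoxic solvent mixture with surfactant and applied as a preemergence directed soil spray after seeding, or sprayed postemergence over plants 2 to 10 cm tall at the one- to two-leaf stage. Evaluation after about 10 d compared treated with untreated controls, using a scale from 0 (no effect) to 100 (complete control).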

[8] = tested on: crabgrass, large (Digitaria sanguinalis); assay: Test A preemergence; details: Digitaria sanguinalis, pre-emergence, 240 h, 0 to 100 scale (0 no effect, 100 complete control), read-out: Plant response rating, Crabgrass, Large
Outline: as §3

[9] = tested on: morningglory (Ipomoea spp.); assay: Test A preemergence; details: Ipomoea, pre-emergence, 240 h, 0 to 100 scale (0 no effect, 100 complete control), read-out: Plant response rating, Morningglory
Outline: as §3

[10] = tested on: velvetleaf (Abutilon theophrasti); assay: Test A preemergence; details: Abutilon theophrasti, pre-emergence, 240 h, 0 to 100 scale (0 no effect, 100 complete control), read-out: Plant response rating, Velvetleaf
Outline: as §3

[11] = tested on: wheat (Triticum aestivum); assay: Test A preemergence; details: Triticum aestivum, pre-emergence, 240 h, 0 to 100 scale (0 no effect, 100 complete control), read-out: Plant response rating, Wheat
Outline: as §3

[12] = tested on: crabgrass, large (Digitaria sanguinalis); assay: Test A postemergence; details: Digitaria sanguinalis, post-emergence, 240 h, Postemergence
Outline: as §3

[13] = tested on: morningglory (Ipomoea spp.); assay: Test A postemergence; details: Ipomoea, post-emergence, 240 h, Postemergence
Outline: as §3

[14] = tested on: velvetleaf (Abutilon theophrasti); assay: Test A postemergence; details: Abutilon theophrasti, post-emergence, 240 h, Postemergence
Outline: as §3

| Compound | pest or weed control at 15.625 g/ha [1] | pest or weed control at 62.5 g/ha [1] | pest or weed control at 250 g/ha [1] | plant injury at 15.625 g/ha [2] | plant injury at 62.5 g/ha [2] | plant injury at 250 g/ha [2] | pest or weed control at 15.625 g/ha [3] | pest or weed control at 62.5 g/ha [3] | pest or weed control at 250 g/ha [3] | pest or weed control at 15.625 g/ha [4] | pest or weed control at 62.5 g/ha [4] | pest or weed control at 250 g/ha [4] | pest or weed control at 15.625 g/ha [5] | pest or weed control at 62.5 g/ha [5] | pest or weed control at 250 g/ha [5] | pest or weed control at 15.625 g/ha [6] | pest or weed control at 62.5 g/ha [6] | pest or weed control at 250 g/ha [6] | further results |
| --- | --- | --- | --- | --- | --- | --- | --- | --- | --- | --- | --- | --- | --- | --- | --- | --- | --- | --- | --- |
| CN1C[C@@H](c2ccc(C(F)(F)F)cc2)[C@H](C(=O)Nc2cnccc2C(F)(F)F)C1=O (racemic) [Compound 1401] | 0% | 20% | 50% | 0% | 0% | 50% | 0% | 60% | 70% | 0% | 0% | 30% | 0% | 0% | 30% | 0% | 20% | 30% |  |
| CN1C[C@H](c2cccc(C(C)(C)C#N)c2)[C@@H](C(=O)Nc2cccc(F)c2F)C1=O (racemic) [Compound 1497] | 20% | 60% | 60% | 10% | 0% | 50% | 30% | 60% | 60% | 0% | 0% | 10% | 0% | 0% | 0% | 0% | 0% | 20% |  |
| CN1C[C@@H](c2ccc(C(F)(F)F)cc2)[C@H](C(=O)Nc2ccnc(Cl)c2Cl)C1=O (racemic) [Compound 1503] | 0% | 10% | 10% | 0% | 10% | 10% | 0% | 20% | 40% | 0% | 0% | 0% | 0% | 0% | 0% | 0% | 0% | 0% |  |
| CN1C[C@@H](c2ccc(C(F)(F)F)cc2)[C@H](C(=O)Nc2ncc(C(F)(F)F)s2)C1=O (racemic) [Compound 1504] | 0% | 0% | 0% | 0% | 0% | 0% | 0% | 0% | 0% | 0% | 0% | 0% | 0% | 0% | 0% | 0% | 0% | 0% |  |
| O=C1NCC(c2ccccc2)C1C(=O)Nc1cc(F)ccc1F (stereo not shown) [Compound 1359] |  |  |  |  |  |  |  |  |  |  |  |  |  |  |  |  |  |  | Corn plant response rating (crop injury, 0 = no effect, 100 = complete kill) at 500 g/ha ([7]; 500 g ai/ha, preemergence): 0%; Corn plant response rating (crop injury, 0 = no effect, 100 = complete kill) at 125 g/ha ([7]; Preemergence, 125 g ai/ha): 0%; pest or weed control at 500 g/ha ([8]; 500 g ai/ha, preemergence): 20%; pest or weed control at 125 g/ha ([8]; Preemergence, 125 g ai/ha): 0%; pest or weed control at 500 g/ha ([9]; 500 g ai/ha, preemergence): 0%; pest or weed control at 125 g/ha ([9]; Preemergence, 125 g ai/ha): 0%; pest or weed control at 500 g/ha ([10]; 500 g ai/ha, preemergence): 0%; pest or weed control at 125 g/ha ([10]; Preemergence, 125 g ai/ha): 0%; plant injury at 500 g/ha ([11]; 500 g ai/ha, preemergence): 0%; plant injury at 125 g/ha ([11]; Preemergence, 125 g ai/ha): 0%; pest or weed control at 125 g/ha ([12]; 125 g ai/ha, visual rating about 10 d after treatment, read-out: Crabgrass, Large plant response rating (0 to 100 scale)): 0%; pest or weed control at 500 g/ha ([12]; 500 g ai/ha, visual injury, 0 to 100 scale (0 no effect, 100 complete control), approx. 10 d, read-out: Plant response rating, Crabgrass, Large): 0%; pest or weed control at 125 g/ha ([13]; 125 g ai/ha, visual rating about 10 d after treatment, read-out: Morningglory plant response rating (0 to 100 scale)): 0%; pest or weed control at 500 g/ha ([13]; 500 g ai/ha, visual injury, 0 to 100 scale (0 no effect, 100 complete control), approx. 10 d, read-out: Plant response rating, Morningglory): 0%; pest or weed control at 125 g/ha ([14]; 125 g ai/ha, visual rating about 10 d after treatment, read-out: Velvetleaf plant response rating (0 to 100 scale)): 0%; pest or weed control at 500 g/ha ([14]; 500 g ai/ha, visual injury, 0 to 100 scale (0 no effect, 100 complete control), approx. 10 d, read-out: Plant response rating, Velvetleaf): 0% |
